Laboratory results reported in patent publication US20190364896A1, “SYNERGISTIC WEED CONTROL FROM APPLICATIONS OF PYRIDINE CARBOXYLIC ACID HERBICIDES AND ALS INHIBITORS” (Dow AgroSciences LLC, priority 2014, published 2019).

How the values were obtained:
[1] = tested on: common rice (Oryza sativa, ORYSA); test: Postemergence crop injury (phytotoxicity), greenhouse trial (visual injury 0-100%)
Experimental: (§1) Seeds of the desired test plant species were planted in Sun Gro MetroMix® 306 planting mixture, which typically has a pH of 6.0 to 6.8 and an organic matter content of about 30 percent, in plastic pots with a surface area of 103.2 square centimeters (cm^2). […] The plants were grown for 7-36 days (d) in a greenhouse with an approximate 14-hour (h) photoperiod which was maintained at about 23° C. during the day and 22° C. during the night. Nutrients and water were added on a regular basis and supplemental lighting was provided with overhead metal halide 1000-Watt lamps as necessary. The plants were employed for testing when they reached the second or third true leaf stage.
(§2) Weighed amounts of technical or formulated material (emulsifiable concentrate (EC) or soluble concentrate (SL)) were dissolved in a volume of 97:3 volume per volume (v/v) acetone/dimethyl sulfoxide (DMSO) to stock solutions. […] The concentrated stock solutions were diluted with an aqueous mixture of 1.5% v/v of Agri-dex crop oil concentrate to provide the appropriate application rates. Compound requirements are based upon a 12 milliliter (mL) application volume at a rate of 187 liters per hectare (L/ha). Spray solutions of the experimental compound mixtures were prepared by adding the stock solutions to the appropriate amount of dilution solution to form a 12 mL spray solution in two-way combinations. Formulated compounds were applied to the plant material with an overhead Mandel track sprayer equipped with 8002E nozzles calibrated to deliver 187 L/ha over an application area of 0.503 square meters (m^2) at a spray height of 18 inches (43 centimeters (cm)) above average plant canopy. Control plants were sprayed in the same manner with the solvent blank. Application rates for component (a) are in g ae/ha, and application rates for component (b) are in g ai/ha.
(§3) The treated plants and control plants were placed in a greenhouse as described above and watered by sub-irrigation to prevent wash-off of the test compounds. After 20-22 d, the condition of the test plants as compared with that of the control plants was determined visually and scored on a scale of 0 to 100 percent where 0 corresponds to no injury and 100 corresponds to complete kill. The condition of the test plants was compared with that of the control plants as determined visually and scored on a scale of 0 to 100 percent, where 0 corresponds to no injury and 100 corresponds to complete kill. Colby's equation was used to determine the herbicidal effects expected from the mixtures.
(§4) Compound 1 was formulated as an EC and was combined with florasulam, cloransulam, diclosulam, flumetsulam, penoxsulam, or pyroxsulam. Compound 2 was formulated as an EC and was combined with florasulam or pyroxsulam. The mixtures were applied to winter wheat (TRZAW), common rice (ORYSA), maize (ZEAMX), and the phytotoxicity of the herbicidal compositions was measured. In addition, the efficacy of the herbicidal compositions on blackgrass (Alopecurus myosuroides, ALOMY), pigweed (Amaranthus retrollexus, AMARE), wild oat (Avena fatua, AVEFA), common lambsquarters (Chenopodium album L., CHEAL), thistle (Cirsium arvense CIRAR), nutsedge (Cyperus esculentus, CYPES), barnyardgrass (Echinochloa crus-galli, ECHCG), poinsettia (Euphorbia heterophylla, EPHHL), ivyleaf morning-glory (Ipomoea hederacea, IPOHE), kochia (Kochia scoparia, KCHSC), wild buckwheat (Polygonum convolvulus, POLCO), grain sorghum (Sorghum vulgare, SORVU), chickweed (Stellaria media, STEME), wild pansy (Viola tricolor, VIOTR), was evaluated.
(§5) Weighed amounts of technical material were dissolved in a volume of 97:3 volume per volume (v/v) acetone/dimethyl sulfoxide (DMSO) to stock solutions. […] The concentrated stock solutions were diluted with an aqueous mixture of 1.5% v/v of Agri-dex crop oil concentrate to provide the appropriate application rates. Compound requirements are based upon a 12 milliliter (mL) application volume at a rate of 187 liters per hectare (L/ha). […]

[2] = tested on: wild pansy (Viola tricolor, VIOTR); test: Postemergence herbicidal activity, greenhouse trial (visual injury 0-100%); type: in vivo
Experimental: as §1, §2, §3
as §4, with “Compound 1 was formulated as an EC and was combined with florasulam, cloransulam, diclosulam, flumetsulam, penoxsulam, or pyroxsulam.” left out
(§6) Weighed amounts of technical material were dissolved in a volume of 97:3 volume per volume (v/v) acetone/dimethyl sulfoxide (DMSO) to stock solutions. […] The concentrated stock solutions were diluted with an aqueous mixture of 1.5% v/v of Agri-dex crop oil concentrate to provide the appropriate application rates. Compound requirements are based upon a 12 milliliter (mL) application volume at a rate of 187 liters per hectare (L/ha).

[3] = tested on: thistle (Cirsium arvense, CIRAR); test: as above; type: in vivo
Experimental: as §1, §2
as §3, with “mixtures. […]” for “mixtures.”
as §6

[4] = tested on: nutsedge (Cyperus esculentus, CYPES); test: as above; type: in vivo; conditions: CYPES
Experimental: as §1
as §2, with “technical” for “technical or formulated”, “material” for “material (emulsifiable concentrate (EC) or soluble concentrate (SL))”
as §3, with “mixtures. […]” for “mixtures.”
as §2

[5] = tested on: spring rape (Brassica napus, BRSNN); test: as above; type: in vivo; conditions: BRSNN; chlorsulfuron 2.2 g ai/ha
[6] = tested on: kochia (Kochia scoparia, KCHSC); test: as above; type: in vivo
Experimental: as §1, §2
as §3, with “mixtures. […]” for “mixtures.”
as §6

[7] = tested on: common lambsquarters (Chenopodium album L., CHEAL); test: as above; type: in vivo; conditions: Chenopodium album, post-emergence, CHEAL; chlorsulfuron 2.2 g ai/ha; read-out: % visual injury Obs
Experimental: as §1, §2, §3, §4, §5

[8] = tested on: barnyardgrass (Echinochloa crus-galli, ECHCG); test: as above; type: in vivo
Experimental: as §1, §2, §3, §4, §5

[9] = tested on: wild oat (Avena fatua, AVEFA); test: as above; type: in vivo; conditions: 35 g ai/ha
Experimental: as §1, §2, §3, §4, §5

[10] = tested on: ivyleaf morning-glory (Ipomoea hederacea, IPOHE); test: as above; type: in vivo
Experimental: as §1, §2, §3, §4, §5

[11] = tested on: giant foxtail (Setaria faberi, SETFA); test: as above; type: in vivo
[12] = tested on: large crabgrass (Digitaria sanguinalis, DIGSA); test: as above; type: in vivo
[13] = tested on: blackgrass (Alopecurus myosuroides, ALOMY); test: as above; type: in vivo; conditions: 280 g ai/ha
Experimental: as §1, §2, §3, §4, §5

maize (Zea mays, ZEAMX) = test: Postemergence crop injury (phytotoxicity), greenhouse trial (visual injury 0-100%); conditions: ZEAMX; nicosulfuron 17.5 g ai/ha
Experimental: as §1, §2, §3, §4, §5

[14] = tested on: chickweed (Stellaria media, STEME); test: Postemergence herbicidal activity, greenhouse trial (visual injury 0-100%); type: in vivo
Experimental: as §1, §2, §3, §4, §5

[15] = tested on: winter rape (Brassica napus, BRSNW); test: as above; type: in vivo; conditions: BRSNW; nicosulfuron 17.5 g ai/ha
[16] = tested on: pigweed (Amaranthus retroflexus, AMARE); test: as above; type: in vivo; conditions: Amaranthus retroflexus, post-emergence, AMARE; orthosulfamuron 15 g ai/ha; read-out: % visual injury Obs
Experimental: as §1, §2
as §3, with “mixtures. […]” for “mixtures.”
as §6

[17] = tested on: winter wheat (Triticum aestivum, TRZAW); test: Postemergence crop injury (phytotoxicity), greenhouse trial (visual injury 0-100%); conditions: TRZAW
Experimental: as §1
as §2, with “technical” for “technical or formulated”, “material” for “material (emulsifiable concentrate (EC) or soluble concentrate (SL))”
as §3
Compound 2 was combined with florasulam and applied to winter wheat (TRZAW) and the phytotoxicity of the herbicidal composition was measured. In addition, the efficacy of the herbicidal composition on poinsettia (Euphorbia heterophylla, EPHHL) and […] (Cyperus esculentus, CYPES) was evaluated.
as §5, with “technical or formulated” for “technical”, “material (emulsifiable concentrate (EC) or soluble concentrate (SL))” for “material”, “(L/ha). Spray solutions of the experimental compound mixtures were prepared by adding the stock solutions to the appropriate amount of dilution solution to form a 12 mL spray solution in two-way combinations.” for “(L/ha).”

[18] = tested on: velvetleaf (Abutilon theophrasti, ABUTH); test: Postemergence herbicidal activity, greenhouse trial (visual injury 0-100%); type: in vivo; conditions: 15 g ai/ha

COc1cc(OC)nc(Oc2cccc(Oc3nc(OC)cc(OC)n3)c2C(=O)[O-])n1.[Na+] [Bispyribac-sodium]
% visual injury Obs ([1]; 10 g ai/ha): 10% | % visual injury Obs ([2]; 10 g ai/ha): 80% | % visual injury Obs ([3]; 10 g ai/ha): 95%

COc1nc(C)nc(NC(=O)NS(=O)(=O)c2ccccc2Cl)n1 [Chlorsulfuron, chlorsulfuron]
pest or weed control ([4]; Cyperus, post-emergence, chlorsulfuron 2.2 g ai/ha, read-out: % visual injury Obs): 0% | % visual injury Obs [5]: 93% | pest or weed control ([2]; Viola tricolor, post-emergence, VIOTR, chlorsulfuron 2.2 g ai/ha, read-out: % visual injury Obs): 60% | pest or weed control ([3]; Cirsium arvense, post-emergence, CIRAR, chlorsulfuron 2.2 g ai/ha, read-out: % visual injury Obs): 90% | pest or weed control ([6]; Bassia scoparia, post-emergence, KCHSC, chlorsulfuron 2.2 g ai/ha, read-out: % visual injury Obs): 50% | pest or weed control [7]: 90% | pest or weed control ([8]; Echinochloa crus-galli, post-emergence, ECHCG, chlorsulfuron 2.2 g ai/ha, read-out: % visual injury Obs): 0%

Cc1cnc(C2=NC(C)(C(C)C)C(=O)N2)c(C(=O)O)c1 (centres unmarked) [Imazapic, imazapic]
pest or weed control at 35 g/ha ([2]; Viola tricolor, post-emergence, 35 g ai/ha, read-out: % visual injury Obs): 10% | % visual injury Obs [9]: 95% | pest or weed control at 35 g/ha ([8]; Echinochloa crus-galli, post-emergence, 35 g ai/ha, read-out: % visual injury Obs): 93% | pest or weed control at 35 g/ha ([10]; Ipomoea hederacea, post-emergence, 35 g ai/ha, read-out: % visual injury Obs): 75% | % visual injury Obs ([11]; 35 g ai/ha): 90%

CC(C)C1(C)N=C(c2ncccc2C(=O)O)NC1=O (centres unmarked) [Imazapyr, imazapyr]
% visual injury Obs ([12]; 280 g ai/ha): 95% | pest or weed control at 280 g/ha ([2]; Viola tricolor, post-emergence, 280 g ai/ha, read-out: % visual injury Obs): 80% | pest or weed control at 280 g/ha ([10]; Ipomoea hederacea, post-emergence, 280 g ai/ha, read-out: % visual injury Obs): 85% | % visual injury Obs [13]: 97%

COc1cc(OC)nc(NC(=O)NS(=O)(=O)c2ncccc2C(=O)N(C)C)n1 [Nicosulfuron, nicosulfuron]
% visual injury Obs (maize (Zea mays, ZEAMX)): 0% | pest or weed control at 17.5 g/ha ([2]; Viola tricolor, post-emergence, VIOTR, nicosulfuron 17.5 g ai/ha, read-out: % visual injury Obs): 40% | pest or weed control at 17.5 g/ha ([6]; Bassia scoparia, post-emergence, KCHSC, nicosulfuron 17.5 g ai/ha, read-out: % visual injury Obs): 5% | pest or weed control at 17.5 g/ha ([14]; Stellaria media, post-emergence, STEME, nicosulfuron 17.5 g ai/ha, read-out: % visual injury Obs): 30% | pest or weed control at 17.5 g/ha ([10]; Ipomoea hederacea, post-emergence, IPOHE, nicosulfuron 17.5 g ai/ha, read-out: % visual injury Obs): 30% | % visual injury Obs ([11]; SETFA, nicosulfuron 17.5 g ai/ha): 80% | % visual injury Obs [15]: 85%

COc1cc(OC)nc(NC(=O)NS(=O)(=O)Nc2ccccc2C(=O)N(C)C)n1 [Orthosulfamuron, orthosulfamuron]
% visual injury Obs ([1]; ORYSA, orthosulfamuron 15 g ai/ha): 0% | pest or weed control at 15 g/ha [16]: 10% | pest or weed control at 15 g/ha ([6]; Bassia scoparia, post-emergence, KCHSC, orthosulfamuron 15 g ai/ha, read-out: % visual injury Obs): 0% | pest or weed control at 15 g/ha ([10]; Ipomoea hederacea, post-emergence, IPOHE, orthosulfamuron 15 g ai/ha, read-out: % visual injury Obs): 90% | % visual injury Obs ([17]; orthosulfamuron 15 g ai/ha): 0%

metsulfuron
% visual injury Obs ([4]; metsulfuron 1.5 g ai/ha): 50% | % visual injury Obs ([1]; ORYSA, metsulfuron 1.5 g ai/ha): 20% | % visual injury Obs ([3]; CIRAR, metsulfuron 1.5 g ai/ha): 90% | % visual injury Obs ([6]; KCHSC, metsulfuron 1.5 g ai/ha): 70% | % visual injury Obs ([8]; ECHCG, metsulfuron 1.5 g ai/ha): 0% | % visual injury Obs ([17]; metsulfuron 1.5 g ai/ha): 0%

pyribenzoxim
% visual injury Obs ([1]; 15 g ai/ha): 0% | % visual injury Obs ([12]; 15 g ai/ha): 0% | % visual injury Obs [18]: 10% | % visual injury Obs ([6]; 15 g ai/ha): 0% | % visual injury Obs ([14]; 15 g ai/ha): 40% | % visual injury Obs ([10]; 15 g ai/ha): 70% | % visual injury Obs ([11]; 15 g ai/ha): 70%
